Like-named read-outs stand apart in the source and are kept apart here.
What was measured:
[1] = tested on: NO production in rat resident macrophages; assay: LPS-/cytokine-induced NO production (nitrite) in rat resident peritoneal macrophages; type: cell-based; details: for inhibition at 20000 µM: Rattus norvegicus, Macrophage
Method: Isolation of Rat Macrophages and Induction of NO Production Resident macrophages were obtained from rats by peritoneal lavage with sterile RPMI 1640 medium containing 1% fetal bovine serum and 100 μg/ml gentamicin (Wang et al., 1995). Cells were washed three times with RPMI 1640 at 4° C. All cell cultures were maintained at 37° C. in a humidified incubator containing 5% CO2 in air. Macrophages, at a concentration of 2×10^6/ml in RPMI 1640 medium containing L-glutamine and gentamicin, were added in volumes of 800 μl to a 35 mm plate. After 1 h, nonadherent cells were removed by washing and 800 μl of serum-free RPMI 1640 medium with various stimuli were added to the adherent cells. After 24 h incubation in 5% CO2 in air at 37° C., the culture supernatants were transferred to measure NO production (Geng et al., 1995; Wang et al., 1995).
Isolation of rat macrophages and induction of NO production Resident macrophages were obtained from rat by peritoneal lavage with sterile RPMI 1640 medium containing 1% fetal bovine serum and 100 μg/ml gentamicin as described herein. Cells were washed three times with RPMI 1640 at 4° C. All cell cultures were maintained at 37° C. in a humidified incubator containing 5% CO2 in air. Macrophages at a concentration of 2×10^6/ml in RPMI 1640 medium containing L-glutamine and gentamicin were added in volumes of 800 μl to a 35 mm plate. After 1 h, nonadherent cells were removed by washing and 800 μl of serum-free RPMI 1640 medium with various stimuli were added to the adherent cells. After incubation in 5% CO2 in air at 37° C., culture supernatants were transferred to measure NO production.
Isolation of rat macrophages and induction of NO production Resident macrophages were obtained from rat by peritoneal lavage with sterile RPMI 1640 medium containing 1% FBS and 100 μg/ml gentamicin. Cells were washed three times with RPMI 1640 at 4° C., and were maintained at 37° C. in a humidified incubator containing 5% CO2 in air. Macrophages at a concentration of […] in RPMI 1640 medium containing L-glutamine and gentamicin were added in volumes of 800 μl to a 35-mm plate. After 1 h, nonadherent cells were removed by washing, and 800 μl of serum-free RPMI 1640 medium with various stimuli was added to the adherent cells. After 24 h the culture supernatants were transferred to measure NO production.
Protein was measured (Bradford, 1976).

[2] = tested on: IL-6 production in rat primary astrocytes; assay: LPS-induced IL-6 production (ELISA) in rat primary astrocytes; type: cell-based
[3] = tested on: IL-1β production in rat primary microglia; assay: LPS-induced IL-1β production (ELISA) in rat primary microglia; type: cell-based
Method: Determination of TNF-α and IL-1β in culture supernatants Cells were stimulated with LPS in serum-free media for 24 h in the presence or absence of forskolin or rolipram, and concentrations of TNF-α and IL-1β were measured in culture supernatants by using high-sensitivity enzyme-linked immunosorbent assay (R&D Systems, USA) according to the manufacturer's instructions.

[4] = tested on: IL-6 production in rat primary microglia; assay: LPS-induced IL-6 production (ELISA) in rat primary microglia; type: cell-based
[5] = tested on: IL-6 production in rat macrophages; assay: LPS-induced IL-6 production (ELISA) in rat macrophages; type: cell-based
EAE in female Lewis rats = assay: Experimental allergic encephalomyelitis (EAE), clinical score; type: in vivo
Method: Rats were induced with EAE by injecting intradermally 50 μg of myelin basic protein (MBP) per animal emulsified in complete Freund's adjuvant (CFA) into the medial footpad of each hind leg on day 1 followed by a booster injection on the 7th day under ether anesthesia. Clinical symptoms in these rats manifest as an ascending paralysis resulting in death in most animals. The signs of EAE were scored as: (0) normal; (1) piloerection; […] (4) paraplegia; and (5) moribund. […] One group of animals induced for EAE was left untreated while another group of animals was not induced for EAE and used as the control group.

iNOS gene = iNOS gene transcription (nuclear run-on assay) in rat primary astrocytes; type: cell-based
Method: […]. In brief, the filters were prehybridized in 1 ml of hybridization buffer (50% formamide, 5×SSC, 1% SDS, 15% dextran sulfate, 1×Denhardt's solution, and 50 μg/ml heparin). After 24 h of prehybridization in the above buffer, hybridization was carried out with the labeled RNAs (1.3×10^5 cpm) at 42° C. for 60 h to 3 μg of the immobilized plasmid pGEM-T as a control, or to plasmids containing inserts of rat glyceraldehyde-3-phosphate dehydrogenase, rat actin, and human iNOS cDNAs. The filters were washed twice in 2×SSC, 0.1% SDS for 15 min at […], and twice in 0.5×SSC, 0.1% SDS for 15 min. Then the filters were treated with RNase buffer (300 mM NaCl, 10 mM TrisHCI, pH 7.4, 40 mM EDTA, 10 μg/ml RNase A, and 350 U/ml RNase T1) at 37° C. for 30 min, in the same buffer without RNases for another 30 min, and were then autoradiographed.

IFN-γ = assay: Immunohistochemistry of IFN-γ in brain sections of EAE rats; type: in vivo, Lewis rats
Method: One group of animals induced for EAE was left untreated while another group of animals was not induced for EAE and used as the control group.
Immunohistochemistry Brains were fixed in 10% buffered formalin (Stephens Scientific, Riverdale, N.J.). The tissues were embedded in paraffin and sectioned at 4 μm. Sections were then stained for various cytokines and cell markers as described below. For single-label immunohistochemistry, sections were incubated with either anti-iNOS antibody (1:100, rabbit polyclonal, Calbiochem, LaJolla, Calif.) or anti-TNF-α antibody (1:100, rabbit polyclonal, Genzyme, Cambridge, Mass.) or anti-IFN-γ antibody (1:200, rabbit polyclonal, Biosource International, Camarillo, Calif.) essentially as described for other antibodies (Hooper et al., 1997). The tissue sections were further incubated with FITC conjugated anti-rabbit IgG (1:100, Sigma, St. Louis, Mo.), mounted with mounting media (EMS) and analyzed by immunofluorescence microscopy (Olympus) using Adobe photoshop software. For immunofluorescent double-labeling, sections were incubated first with anti-iNOS (1:100) followed by macrophage marker ED1 (1:100, mouse monoclonal, Biosource International, Camarillo, Calif.). Anti-iNOS was visualized using TRITC conjugated anti-rabbit IgG—(1:100, Sigma, St. Louis, Mo.) and ED1 using FITC conjugated anti-mouse IgG (1:100, Sigma, St. Louis, Mo.). […]

[6] = Macrophages, 10 μM lovastatin or 5 mM NaPA 8 h, then LPS 1.0 μg/ml, 24 h
[7] = Microglia, 10 μM lovastatin or 5 mM NaPA 8 h, then LPS 1.0 μg/ml, 24 h
[8] = treatment from first day of immunization

CC[C@H](C)C(=O)O[C@H]1C[C@@H](C)C=C2C=C[C@H](C)[C@H](CC[C@@H]3C[C@@H](O)CC(=O)O3)[C@H]21 [Lovastatin]
Production of NO [1, 6]: 7.2 ± 0.9 nmol/24 h/mg protein
Production of IL-6 ([2]; Astrocytes, 10 μM lovastatin or 5 mM NaPA 8 h, then LPS 1.0 μg/ml, 24 h): 6.9 ± 0.9 ng/24 h/mg protein
Production of IL-1β [3, 7]: 2.1 ± 0.3 ng/24 h/mg protein
Production of IL-6 [4, 7]: 7.8 ± 1.1 ng/24 h/mg protein
Production of IL-6 [5, 6]: 8.3 ± 0.6 ng/24 h/mg protein
protection against EAE disease (EAE in female Lewis rats; [8]): significantly delayed the onset of first of clinical symptom
LPS-induced nuclear transcription of the iNOS gene (iNOS gene; 10 μM lovastatin, 5 mM NaPA or 2 μM lovastatin and 2 mM NaPA 8 h, LPS 1.0 μg/ml 4 h): inhibited the relative rate of LPS-induced nuclear transcription of the iNOS gene

CC(=O)N[C@@H](CS)C(=O)O [NAC, N-acetyl cysteine]
Nitrite ([1]; IFN-γ 200 U/ml, NAC 20 mM 2 h before): 9.9 ± 1.8 nmol/mg/24 h
Nitrite ([1]; IL-1β 200 ng/ml, NAC 20 mM 2 h before): 9.2 ± 0.7 nmol/mg/24 h
Nitrite ([1]; LPS 0.2 μg/ml + IFN-γ 50 U/ml, NAC 20 mM 2 h before): 25.2 ± 3.9 nmol/mg/24 h
Nitrite ([1]; LPS 0.2 μg/ml + IL-1β 25 ng/ml, NAC 20 mM 2 h before): 28.4 ± 3.7 nmol/mg/24 h
Nitrite ([1]; LPS 0.2 μg/ml + TNF-α 20 ng/ml, NAC 20 mM 2 h before): 13.6 ± 2.6 nmol/mg/24 h
Nitrite ([1]; LPS 1.0 μg/ml, 24 h, NAC 20 mM 2 h before LPS, NMA 0.1 mM, arginase 100 units/ml with LPS): 11.6 ± 1.5 nmol/mg Protein^24h
rate of nitrite accumulation ([1]; LPS 1.0 μg/ml, NAC 20 mM, onset of NO release until 24 h, 5.2 in the absence of NAC): 0.5 nmol/mg/h
Nitrite ([1]; LPS 1.0 μg/ml, NAC 20 mM 2 h before): 11.6 ± 1.5 nmol/mg/24 h
Nitrite ([1]; NAC 20 mM alone, no LPS, 24 h): 6.2 ± 0.8 nmol/mg Protein^24h
inhibition at 20000 µM ([1]; 7 h, NAC 20 mM added 7 h after the addition of LPS, read-out: inhibition of nitrite production): 20%
inhibition at 20000 µM ([1]; IFN-γ 200 U/ml, NAC 20 mM 2 h before, read-out: Inhibition (%) of nitrite): 89%
inhibition at 20000 µM ([1]; IL-1β 200 ng/ml, NAC 20 mM 2 h before, read-out: Inhibition (%) of nitrite): 57%
inhibition at 20000 µM ([1]; LPS 0.2 μg/ml + IFN-γ 50 U/ml, NAC 20 mM 2 h before, read-out: Inhibition (%) of nitrite): 84%
inhibition at 20000 µM ([1]; LPS 0.2 μg/ml + IL-1β 25 ng/ml, NAC 20 mM 2 h before, read-out: Inhibition (%) of nitrite): 81%
inhibition at 20000 µM ([1]; LPS 0.2 μg/ml + TNF-α 20 ng/ml, NAC 20 mM 2 h before, read-out: Inhibition (%) of nitrite): 92%
inhibition at 20000 µM ([1]; LPS 1.0 μg/ml, NAC 20 mM 2 h before, read-out: Inhibition (%) of nitrite): 91%
inhibition at 20000 µM ([1]; NAC 20 mM, 2 h before LPS, read-out: inhibition of LPS-mediated nitrite production): > 90%
inhibition at 20000 µM ([1]; TNF-α 20 ng/ml + IFN-γ 50 U/ml, NAC 20 mM 2 h before, read-out: Inhibition (%) of nitrite): 79%
inhibition at 20000 µM ([1]; TNF-α 20 ng/ml + IL-1β 25 ng/ml, NAC 20 mM 2 h before, read-out: Inhibition (%) of nitrite): 83%
inhibition at 20000 µM ([1]; TNF-α 100 ng/ml, NAC 20 mM 2 h before, read-out: Inhibition (%) of nitrite): 64%
inhibition at 20000 µM ([1]; no stimulus (Control), NAC 20 mM, read-out: Inhibition (%) of nitrite): 37%
inhibition at 20000 µM ([1]; of LPS (1.0 μg/ml)-induced nitrite, NAC 20 mM 2 h before, NMA 0.1 mM, arginase 100 units/ml with LPS, read-out: Inhibition (%)): 91%
Nitrite ([1]; TNF-α 20 ng/ml + IFN-γ 50 U/ml, NAC 20 mM 2 h before): 29.6 ± 4.2 nmol/mg/24 h
Nitrite ([1]; TNF-α 20 ng/ml + IL-1β 25 ng/ml, NAC 20 mM 2 h before): 22.8 ± 2.7 nmol/mg/24 h
Nitrite ([1]; TNF-α 100 ng/ml, NAC 20 mM 2 h before): 10.1 ± 1.6 nmol/mg/24 h
Nitrite ([1]; no stimulus (Control), NAC 20 mM): 6.2 ± 0.8 nmol/mg/24 h
protection against EAE disease (EAE in female Lewis rats; [8]): protected the rats from the severity of the disease
expression of IFN-γ in EAE brain (IFN-γ; daily i.p. treatment from day 1): blocked the induction of IFN-γ

O=C([O-])Cc1ccccc1.[Na+] [NaPA, sodium salt of phenylacetic acid]
Production of NO [1]: 9.5 ± 0.7 nmol/24 h/mg protein
Production of IL-6 [2]: 7.6 ± 0.8 ng/24 h/mg protein
Production of IL-1β [3]: 2.4 ± 0.2 ng/24 h/mg protein
Production of IL-6 [4]: 9.3 ± 1.2 ng/24 h/mg protein
Production of IL-6 [5]: 10.2 ± 1.4 ng/24 h/mg protein
protection against EAE disease (EAE in female Lewis rats; rat, in vivo): protected the rats from the severity of the disease
expression of IFN-γ in EAE brain (IFN-γ; rat, in vivo, ip): blocked the induction of IFN-γ
LPS-induced nuclear transcription of the iNOS gene (iNOS gene): inhibited the relative rate of LPS-induced nuclear transcription of the iNOS gene

— patent publication US8507219B2, “Method of treating inflammation with statins” (MUSC Foundation for Research Development, priority 1997, dated 2013)
